From ChEMBL document CHEMBL1201862, “PubChem BioAssay data set” (2004)
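Results reflect a 48-hour exposure of cells in 96-well plates to compound at five concentrations. At the GI50, growth is halved.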 Active and inactive are the calls of the source. Rule as the data show it: active = GI50 up to about 1.1 µM and inactive = higher.

Assays:
Test in all cases: growth of human tumour cells (NCI), 48 h
[1] = test system: DMS-273
[2] = test system: RXF 631
[3] = test system: COLO 205
[4] = test system: XF498
[5] = test system: RXF 393
[6] = test system: NCI-H522
[7] = test system: OVCAR-3
[8] = test system: SK-MEL-2
[9] = test system: HL-60
[10] = test system: SK-MEL-5
[11] = test system: UACC-257
[12] = test system: ACHN
[13] = test system: NCI-H23
[14] = test system: LOX IMVI
[15] = test system: SN12C
[16] = test system: SNB-19
[17] = test system: UACC-62
[18] = test system: EKVX
[19] = test system: NCI-H460
[20] = test system: K562
[21] = test system: SR
[22] = test system: M14
[23] = test system: A549
[24] = test system: HOP-92
[25] = test system: HCT-15
[26] = test system: Malme-3M
[27] = test system: 786-0
[28] = test system: TK-10
[29] = test system: SF-295
[30] = test system: OVCAR-8
[31] = test system: M19-MEL
[32] = test system: NCI-H226
[33] = test system: SNB-75
[34] = test system: SW-620
[35] = test system: U-251
[36] = test system: OVCAR-5
[37] = test system: HOP-18
[38] = test system: OVCAR-4
[39] = test system: HCC 2998
[40] = test system: CCRF-CEM
[41] = test system: LXFL 529
[42] = test system: SNB-78
[43] = test system: MOLT-4
[44] = test system: CAKI-1
[45] = test system: SK-OV-3
[46] = test system: DMS-114
[47] = test system: HT-29
[48] = test system: UO-31
[49] = test system: IGROV-1
[50] = test system: KM-20L2
[51] = test system: KM12
[52] = test system: RPMI-8226
[53] = test system: HCT-116
[54] = test system: SK-MEL-28
[55] = test system: SF-268
[56] = test system: SF-539
[57] = test system: DLD-1
[58] = test system: HOP-62

SMILES: CCOc1ccc(/C=C2/C(=O)N=C(N)N=C2N)cc1OCC
- GI50 [1]: > 100 µM (inactive)
- GI50 [2]: > 100 µM (inactive)
- GI50 [3]: > 100 µM (inactive)
- GI50 [4]: > 100 µM (inactive)
- GI50 [5]: > 100 µM (inactive)
- GI50 [6]: > 100 µM (inactive)
- GI50 [7]: > 100 µM (inactive)
- GI50 [8]: > 100 µM (inactive)
- GI50 [9]: > 100 µM (inactive)
- GI50 [10]: > 100 µM (inactive)
- GI50 [11]: > 100 µM (inactive)
- GI50 [12]: > 100 µM (inactive)
- GI50 [13]: > 100 µM (inactive)
- GI50 [14]: > 100 µM (inactive)
- GI50 [15]: > 100 µM (inactive)
- GI50 [16]: > 100 µM (inactive)
- GI50 [17]: > 100 µM (inactive)
- GI50 [18]: > 100 µM (inactive)
- GI50 [19]: > 100 µM (inactive)
- GI50 [20]: > 100 µM (inactive)
- GI50 [21]: > 100 µM (inactive)
- GI50 [22]: > 100 µM (inactive)
- GI50 [23]: > 100 µM (inactive)
- GI50 [24]: > 100 µM (inactive)
- GI50 [25]: > 100 µM
- GI50 [26]: > 100 µM (inactive)
- GI50 [27]: > 100 µM (inactive)
- GI50 [28]: > 100 µM (inactive)
- GI50 [29]: > 100 µM (inactive)
- GI50 [30]: > 100 µM (inactive)
- GI50 [31]: > 100 µM (inactive)
- GI50 [32]: > 100 µM (inactive)
- GI50 [33]: > 100 µM (inactive)
- GI50 [34]: > 100 µM (inactive)
- GI50 [35]: > 100 µM (inactive)
- GI50 [36]: > 100 µM (inactive)
- GI50 [37]: > 100 µM (inactive)
- GI50 [38]: > 100 µM (inactive)
- GI50 [39]: > 100 µM (inactive)
- GI50 [40]: > 100 µM (inactive)
- GI50 [41]: > 100 µM (inactive)
- GI50 [42]: > 100 µM (inactive)
- GI50 [43]: > 100 µM (inactive)
- GI50 [44]: > 100 µM (inactive)
- GI50 [45]: > 100 µM (inactive)
- GI50 [46]: > 100 µM (inactive)
- GI50 [47]: > 100 µM (inactive)
- GI50 [48]: > 100 µM (inactive)
- GI50 [49]: > 100 µM (inactive)
- GI50 [50]: > 100 µM (inactive)
- GI50 [51]: > 100 µM (inactive)
- GI50 [52]: > 100 µM (inactive)
- GI50 [53]: > 100 µM (inactive)
- GI50 [54]: > 100 µM (inactive)

SMILES: Cc1ccccc1N(CCC#N)C1=NN(C(=O)CC(=O)Nc2ccccc2)C(c2ccccc2)C1 (configuration not stated)
- GI50 [1]: > 100 µM (inactive)
- GI50 [2]: > 100 µM (inactive)
- GI50 [3]: > 100 µM (inactive)
- GI50 [5]: > 100 µM (inactive)
- GI50 [6]: > 100 µM (inactive)
- GI50 [55]: > 100 µM (inactive)
- GI50 [7]: > 100 µM (inactive)
- GI50 [8]: > 100 µM (inactive)
- GI50 [9]: > 100 µM (inactive)
- GI50 [10]: > 100 µM (inactive)
- GI50 [11]: > 100 µM (inactive)
- GI50 [12]: > 100 µM (inactive)
- GI50 [13]: > 100 µM (inactive)
- GI50 [15]: > 100 µM (inactive)
- GI50 [16]: > 100 µM (inactive)
- GI50 [17]: > 100 µM (inactive)
- GI50 [18]: > 100 µM (inactive)
- GI50 [19]: > 100 µM (inactive)
- GI50 [20]: > 100 µM (inactive)
- GI50 [56]: > 100 µM (inactive)
- GI50 [21]: 44.1 µM (inactive)
- GI50 [22]: > 100 µM (inactive)
- GI50 [23]: > 100 µM (inactive)
- GI50 [24]: > 100 µM (inactive)
- GI50 [25]: > 100 µM
- GI50 [26]: > 100 µM (inactive)
- GI50 [27]: > 100 µM (inactive)
- GI50 [29]: > 100 µM (inactive)
- GI50 [30]: > 100 µM (inactive)
- GI50 [57]: > 100 µM (inactive)
- GI50 [31]: > 100 µM (inactive)
- GI50 [32]: > 100 µM (inactive)
- GI50 [33]: 35 µM (inactive)
- GI50 [34]: > 100 µM (inactive)
- GI50 [35]: > 100 µM (inactive)
- GI50 [36]: > 100 µM (inactive)
- GI50 [37]: > 100 µM (inactive)
- GI50 [38]: > 100 µM (inactive)
- GI50 [39]: > 100 µM (inactive)
- GI50 [40]: > 100 µM (inactive)
- GI50 [41]: > 100 µM (inactive)
- GI50 [42]: 67.9 µM (inactive)
- GI50 [43]: > 100 µM (inactive)
- GI50 [45]: > 100 µM (inactive)
- GI50 [47]: > 100 µM (inactive)
- GI50 [48]: > 100 µM (inactive)
- GI50 [58]: > 100 µM (inactive)
- GI50 [49]: > 100 µM (inactive)
- GI50 [50]: > 100 µM (inactive)
- GI50 [51]: > 100 µM (inactive)
- GI50 [52]: > 100 µM (inactive)
- GI50 [53]: > 100 µM (inactive)
- GI50 [54]: > 100 µM (inactive)
